Paper PMC6149819, “Domain IV of Annexin A5 Is Critical for Binding Calcium and Guarantees Its Maximum Binding to the Phosphatidylserine Membrane” (Molecules : A Journal of Synthetic Chemistry and Natural …, 2017)

Tests used:
[1] = biological target: T1, ctA5 (C-terminal truncated anxA5, lacking domain IV) (Homo sapiens, UniProt P08758, DEL255-320); experiment: isothermal titration calorimetry, one-site model; type: binding
T1 construct: domain IV (last 66 residues) deleted; reverse primer ends at AYLAET; non-fusion protein released by SspDnaB intein self-cleavage, His6-CBD-intein removed; E. coli BL21(DE3); initiator Met absent
T1 sequence (P08758 2-254): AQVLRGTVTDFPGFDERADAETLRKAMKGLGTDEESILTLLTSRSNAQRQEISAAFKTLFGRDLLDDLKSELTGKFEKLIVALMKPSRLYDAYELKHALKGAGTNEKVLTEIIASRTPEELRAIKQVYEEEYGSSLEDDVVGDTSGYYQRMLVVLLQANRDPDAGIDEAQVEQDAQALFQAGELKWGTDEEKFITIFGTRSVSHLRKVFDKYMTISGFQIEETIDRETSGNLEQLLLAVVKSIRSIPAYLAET
Source text: isothermal titration calorimetry, one-site model on ctA5 (C-terminal truncated anxA5, lacking domain IV)

wtA5 (wild-type anxA5) = biological target: T2, wtA5 (wild-type anxA5) (Homo sapiens, UniProt P08758); experiment: isothermal titration calorimetry, one-site model; type: binding
T2 construct: non-fusion protein released by SspDnaB intein self-cleavage, His6-CBD-intein removed; E. coli BL21(DE3); forward primer encodes AQVLRG directly after the intein (initiator Met absent)
T2 sequence (P08758 2-320): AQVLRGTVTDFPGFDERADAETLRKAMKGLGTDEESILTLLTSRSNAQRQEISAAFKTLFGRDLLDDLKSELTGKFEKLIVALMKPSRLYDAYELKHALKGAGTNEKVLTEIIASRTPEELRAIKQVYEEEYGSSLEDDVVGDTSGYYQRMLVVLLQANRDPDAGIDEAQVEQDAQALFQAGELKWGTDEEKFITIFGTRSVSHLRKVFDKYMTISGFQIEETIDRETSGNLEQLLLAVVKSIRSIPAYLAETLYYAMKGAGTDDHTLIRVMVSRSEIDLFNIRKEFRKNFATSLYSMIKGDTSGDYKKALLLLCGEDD
Source text: isothermal titration calorimetry, one-site model on wtA5 (wild-type anxA5)

- Kd [1]: 158 ± 15.4 µM
- Kd (wtA5 (wild-type anxA5)): 55.9 ± 6.8 µM
Compound: CCCCCCCC/C=C\CCCCCCCC(=O)O[C@H](COC(=O)CCCCCCCCCCCCCCC)COP(=O)(O)OC[C@H](N)C(=O)O [POPS]
